Like-named read-outs stand apart in the source and are kept apart here. Starred links: 1 amine or outer side, 2 acyl side, 3 side chain; linkers in the order of their positions; H or OH if unused. Non-standard residues stand in square brackets, D forms with d. Residues, ends and D or L forms follow the SMILES beside them. Phe(4-(5-CO2H-2-pyrimidyl)) = N[C@@H](Cc1ccc(-c2ncc(C(=O)O)cn2)cc1)C(=O)O; Phe(4-(4-Ac-piperazinyl)) = CC(=O)N1CCN(c2ccc(C[C@H](N)C(=O)O)cc2)CC1; dPro(4R-(4-pyridylmethyl)) = O=C(O)[C@H]1C[C@@H](Cc2ccncc2)CN1; X17 = CN(C)C(=O)c1ccc(-c2ccc(C[C@H](N[*:1])C(=O)[*:2])cc2)cc1; Trp(βS-Me,4-F) = C[C@@H](c1c[nH]c2cccc(F)c12)[C@H](N)C(=O)O; Bip(4'-COOH) = N[C@@H](Cc1ccc(-c2ccc(C(=O)O)cc2)cc1)C(=O)O; Ala(1-bicyclo(1.1.1)pentyl) = N[C@@H](CC12CC(C1)C2)C(=O)O; dPro(4R-Bzl(4-F)) = O=C(O)[C@H]1C[C@@H](Cc2ccc(F)cc2)CN1; 1Nal(3S-Me) = C[C@@H](c1cccc2ccccc12)[C@H](N)C(=O)O; Ala(pyrimidin-5-yl) = N[C@@H](Cc1cncnc1)C(=O)O; Phe(4-COOH) = N[C@@H](Cc1ccc(C(=O)O)cc1)C(=O)O; Pro(cis-4-F) = O=C(O)[C@@H]1C[C@H](F)CN1; AEF = NCCOc1ccc(C[C@H](N)C(=O)O)cc1; cisHyp = O=C(O)[C@@H]1C[C@H](O)CN1; d(αMeD) = C[C@@](N)(CC(=O)O)C(=O)O; d(αMeK) = C[C@@](N)(CCCCN)C(=O)O; 3Pal = N[C@@H](Cc1cccnc1)C(=O)O; 4Pal = N[C@@H](Cc1ccncc1)C(=O)O; αMeD = C[C@](N)(CC(=O)O)C(=O)O; d(αMeS) = C[C@@](N)(CO)C(=O)O; Api = NC1(C(=O)O)CCNCC1; Dab = NCC[C@H](N)C(=O)O; Aib = CC(C)(N)C(=O)O; Sar = CNCC(=O)O
Target: T1, IL-1β (Homo sapiens, UniProt P01584)
T1 construct: purchased BioLegend 579404
T1 sequence (P01584 117-269): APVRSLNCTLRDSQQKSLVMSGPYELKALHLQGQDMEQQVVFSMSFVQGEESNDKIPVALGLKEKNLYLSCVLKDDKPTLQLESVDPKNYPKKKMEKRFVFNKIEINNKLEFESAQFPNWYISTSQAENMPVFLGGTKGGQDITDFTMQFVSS
Experiment: IL-6 assay in MRC5 cells: inhibition of IL-1β induced IL-6 secretion (AlphaLISA)
Type: cell-based
Settings: inhibition of IL-1β induced IL-6 secretion in MRC5 cells, read-out: MRC5 IC50
Summary of the method: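 Compound was pre-incubated 1 h at ambient temperature with recombinant human IL-1β at 2λ EC80 before adding human lung fibroblast MRC5 cells (3000/well) in EMEM with 0.025% BSA. After overnight culture at 37 °C, 5% CO2, secreted IL-6 in conditioned medium was measured by AlphaLISA; IC50 from 4-parameter logistic fits.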

## C[C@@H](c1c[nH]c2cccc(F)c12)[C@@H]1NC(=O)[C@@H]2C[C@H](F)CN2C(=O)CNC(=O)[C@H](Cc2ccc(C(=O)O)cc2)NC(=O)[C@H](Cc2ccncc2)NC(=O)[C@H](Cc2ccc(-c3ccc(C(=O)O)cc3)cc2)NC(=O)[C@H]2C[C@@H](Cc3ccc(F)cc3)CN2C(=O)CNC(=O)[C@H](CCN)NC(=O)[C@H](CCC(N)=O)NC(=O)[C@H](Cc2cccnc2)NC(=O)[C@@](C)(CC(=O)O)NC(=O)[C@H](Cc2c[nH]c3ccccc23)NC(=O)[C@H](CO)NC(=O)C(C)(C)NC1=O [Example 323] (cyclo([Bip(4'-COOH)][4Pal][Phe(4-COOH)]G[Pro(cis-4-F)][Trp(βS-Me,4-F)][Aib]SW[d(αMeD)][3Pal]Q[Dab]G[dPro(4R-Bzl(4-F))]))
  IC50: 12 pM

## C[C@@H](c1c[nH]c2cccc(F)c12)[C@@H]1NC(=O)[C@@H]2C[C@H](O)CN2C(=O)CNC(=O)[C@H](Cc2ccc(C(=O)O)cc2)NC(=O)[C@H](Cc2ccncc2)NC(=O)[C@H](Cc2ccc(-c3ccc(C(=O)O)cc3)cc2)NC(=O)[C@H]2C[C@@H](Cc3ccncc3)CN2C(=O)CN(C)C(=O)[C@H](CCN)NC(=O)[C@H](CCC(N)=O)NC(=O)[C@H](Cc2cncnc2)NC(=O)[C@](C)(CC(=O)O)NC(=O)[C@H](Cc2c[nH]c3ccccc23)NC(=O)[C@H](CO)NC(=O)C(C)(C)NC1=O [Example 209] (cyclo([Bip(4'-COOH)][4Pal][Phe(4-COOH)]G[cisHyp][Trp(βS-Me,4-F)][Aib]SW[αMeD][Ala(pyrimidin-5-yl)]Q[Dab][Sar][dPro(4R-(4-pyridylmethyl))]))
  IC50: 34 pM

## C[C@@H](c1c[nH]c2cccc(F)c12)[C@@H]1NC(=O)[C@@H]2C[C@H](F)CN2C(=O)CNC(=O)[C@H](Cc2ccc(C(=O)O)cc2)NC(=O)[C@H](CC23CC(C2)C3)NC(=O)[C@H](Cc2ccc(-c3ncc(C(=O)O)cn3)cc2)NC(=O)[C@H]2C[C@@H](Cc3ccc(F)cc3)CN2C(=O)CNC(=O)[C@H](CCN)NC(=O)[C@H](CCC(N)=O)NC(=O)[C@H](Cc2cncnc2)NC(=O)C(C)(C)NC(=O)[C@H](Cc2c[nH]c3ccccc23)NC(=O)[C@H](CO)NC(=O)C(C)(C)NC1=O [Example 83] (cyclo([Phe(4-(5-CO2H-2-pyrimidyl))][Ala(1-bicyclo(1.1.1)pentyl)][Phe(4-COOH)]G[Pro(cis-4-F)][Trp(βS-Me,4-F)][Aib]SW[Aib][Ala(pyrimidin-5-yl)]Q[Dab]G[dPro(4R-Bzl(4-F))]))
  IC50: 45 pM

## C[C@@H](c1c[nH]c2cccc(F)c12)[C@@H]1NC(=O)[C@@H]2C[C@H](F)CN2C(=O)CNC(=O)[C@H](Cc2ccc(C(=O)O)cc2)NC(=O)[C@H](Cc2ccncc2)NC(=O)[C@H](Cc2ccc(-c3ccc(C(=O)O)cc3)cc2)NC(=O)[C@H]2C[C@@H](Cc3ccncc3)CN2C(=O)CN(C)C(=O)[C@H](CCN)NC(=O)[C@H](CCC(N)=O)NC(=O)[C@H](Cc2cncnc2)NC(=O)C(C)(C)NC(=O)[C@H](Cc2c[nH]c3ccccc23)NC(=O)[C@H](CO)NC(=O)C(C)(C)NC1=O [Example 205] (cyclo([Bip(4'-COOH)][4Pal][Phe(4-COOH)]G[Pro(cis-4-F)][Trp(βS-Me,4-F)][Aib]SW[Aib][Ala(pyrimidin-5-yl)]Q[Dab][Sar][dPro(4R-(4-pyridylmethyl))]))
  IC50: 28 pM

## COC[C@@]1(C)NC(=O)[C@H](Cc2c[nH]c3ccccc23)NC(=O)[C@H](CO)NC(=O)C(C)(C)NC(=O)[C@H]([C@@H](C)c2c[nH]c3cccc(F)c23)NC(=O)[C@@H]2C[C@H](F)CN2C(=O)CNC(=O)[C@H](Cc2ccc(C(=O)O)cc2)NC(=O)[C@H](Cc2ccncc2)NC(=O)[C@H](Cc2ccc(-c3ccc(C(=O)O)cc3)cc2)NC(=O)[C@H]2C[C@@H](Cc3ccncc3)CN2C(=O)CNC(=O)[C@H](CCN)NC(=O)[C@H](CCC(N)=O)NC(=O)[C@H](Cc2cncnc2)NC1=O [Example 260] (cyclo([Bip(4'-COOH)][4Pal][Phe(4-COOH)]G[Pro(cis-4-F)][Trp(βS-Me,4-F)][Aib]SW[d(αMeS)](Me)[Ala(pyrimidin-5-yl)]Q[Dab]G[dPro(4R-(4-pyridylmethyl))]))
Compound pre-incubated 1 hour with recombinant human IL-1β
  IC50: 13 pM

## C[C@@H](c1cccc2ccccc12)[C@@H]1NC(=O)[C@@H]2C[C@H](F)CN2C(=O)CNC(=O)[C@H](Cc2ccc(C(=O)O)cc2)NC(=O)[C@H](Cc2ccncc2)NC(=O)[C@H](Cc2ccc(-c3ccc(C(=O)O)cc3)cc2)NC(=O)[C@H]2C[C@@H](Cc3ccc(F)cc3)CN2C(=O)CNC(=O)[C@H](CCN)NC(=O)[C@H](CCC(N)=O)NC(=O)[C@H](Cc2cncnc2)NC(=O)C(C)(C)NC(=O)[C@H](Cc2c[nH]c3ccccc23)NC(=O)[C@H](CO)NC(=O)C(C)(C)NC1=O [Example 140] (cyclo([Bip(4'-COOH)][4Pal][Phe(4-COOH)]G[Pro(cis-4-F)][1Nal(3S-Me)][Aib]SW[Aib][Ala(pyrimidin-5-yl)]Q[Dab]G[dPro(4R-Bzl(4-F))]))
  IC50: 33 pM

## C[C@@H](c1c[nH]c2cccc(F)c12)[C@@H]1NC(=O)[C@@H]2C[C@H](F)CN2C(=O)CNC(=O)[C@H](Cc2ccc(C(=O)O)cc2)NC(=O)[C@H](Cc2ccncc2)NC(=O)[C@H](Cc2ccc(-c3ccc(C(=O)O)cc3)cc2)NC(=O)[C@H]2C[C@@H](Cc3ccncc3)CN2C(=O)CNC(=O)[C@H](CCN)NC(=O)[C@H](CCC(N)=O)NC(=O)[C@H](Cc2cncnc2)NC(=O)[C@@](C)(CC(=O)O)NC(=O)[C@H](Cc2c[nH]c3ccccc23)NC(=O)[C@H](CO)NC(=O)C(C)(C)NC1=O [Example 154] (cyclo([Bip(4'-COOH)][4Pal][Phe(4-COOH)]G[Pro(cis-4-F)][Trp(βS-Me,4-F)][Aib]SW[d(αMeD)][Ala(pyrimidin-5-yl)]Q[Dab]G[dPro(4R-(4-pyridylmethyl))]))
  IC50: 11 pM

## C[C@@H](c1c[nH]c2cccc(F)c12)[C@@H]1NC(=O)[C@@H]2C[C@H](F)CN2C(=O)CNC(=O)[C@H](Cc2ccc(C(=O)O)cc2)NC(=O)[C@H](CC23CC(C2)C3)NC(=O)[C@H](Cc2ccc(-c3ccc(C(=O)N(C)C)cc3)cc2)NC(=O)[C@H]2C[C@@H](Cc3ccncc3)CN2C(=O)CNC(=O)[C@H](CCN)NC(=O)[C@H](CCC(N)=O)NC(=O)[C@H](Cc2cncnc2)NC(=O)[C@@](C)(CC(=O)O)NC(=O)[C@H](Cc2c[nH]c3ccccc23)NC(=O)[C@H](CO)NC(=O)C(C)(C)NC1=O [Example 341] (cyclo([X17][Ala(1-bicyclo(1.1.1)pentyl)][Phe(4-COOH)]G[Pro(cis-4-F)][Trp(βS-Me,4-F)][Aib]SW[d(αMeD)][Ala(pyrimidin-5-yl)]Q[Dab]G[dPro(4R-(4-pyridylmethyl))]))
  IC50: 24 pM

## C[C@@H](c1c[nH]c2cccc(F)c12)[C@@H]1NC(=O)[C@@H]2C[C@H](F)CN2C(=O)CNC(=O)[C@H](Cc2ccc(C(=O)O)cc2)NC(=O)[C@H](Cc2ccncc2)NC(=O)[C@H](Cc2ccc(-c3ccc(C(=O)O)cc3)cc2)NC(=O)[C@H]2C[C@@H](Cc3ccc(F)cc3)CN2C(=O)CNC(=O)[C@H](CCN)NC(=O)[C@H](CCC(N)=O)NC(=O)[C@H](Cc2cncnc2)NC(=O)C2(CCNCC2)NC(=O)[C@H](Cc2c[nH]c3ccccc23)NC(=O)[C@H](CCC(=O)O)NC(=O)C(C)(C)NC1=O [Example 65] (cyclo([Bip(4'-COOH)][4Pal][Phe(4-COOH)]G[Pro(cis-4-F)][Trp(βS-Me,4-F)][Aib]EW[Api][Ala(pyrimidin-5-yl)]Q[Dab]G[dPro(4R-Bzl(4-F))]))
  IC50: 25 pM

## CC(=O)NCCOc1ccc(C[C@@H]2NC(=O)[C@H]3C[C@@H](Cc4ccc(F)cc4)CN3C(=O)CNC(=O)[C@H](CCN)NC(=O)[C@H](CCC(N)=O)NC(=O)[C@H](Cc3ccncc3)NC(=O)C(C)(C)NC(=O)[C@H](Cc3c[nH]c4ccccc34)NC(=O)[C@H](CCC(=O)O)NC(=O)C(C)(C)NC(=O)[C@H]([C@@H](C)c3c[nH]c4cccc(F)c34)NC(=O)[C@@H]3C[C@H](F)CN3C(=O)CNC(=O)[C@H](Cc3ccc(C(=O)O)cc3)NC(=O)[C@H](Cc3ccncc3)NC2=O)cc1 [Example 95] (cyclo([AEF](Ac)[4Pal][Phe(4-COOH)]G[Pro(cis-4-F)][Trp(βS-Me,4-F)][Aib]EW[Aib][4Pal]Q[Dab]G[dPro(4R-Bzl(4-F))]))
  IC50: 54 pM

## CC(=O)N1CCN(c2ccc(C[C@@H]3NC(=O)[C@H]4C[C@@H](Cc5ccncc5)CN4C(=O)CNC(=O)[C@H](CCN)NC(=O)[C@H](CCC(N)=O)NC(=O)[C@H](Cc4cncnc4)NC(=O)C(C)(C)NC(=O)[C@H](Cc4c[nH]c5ccccc45)NC(=O)[C@H](CO)NC(=O)C(C)(C)NC(=O)[C@H]([C@@H](C)c4c[nH]c5cccc(F)c45)NC(=O)[C@@H]4C[C@H](F)CN4C(=O)CNC(=O)[C@H](Cc4ccc(C(=O)O)cc4)NC(=O)[C@H](Cc4ccncc4)NC3=O)cc2)CC1 [Example 366] (cyclo([Phe(4-(4-Ac-piperazinyl))][4Pal][Phe(4-COOH)]G[Pro(cis-4-F)][Trp(βS-Me,4-F)][Aib]SW[Aib][Ala(pyrimidin-5-yl)]Q[Dab]G[dPro(4R-(4-pyridylmethyl))]))
  IC50: 21 pM

## C[C@@H](c1c[nH]c2cccc(F)c12)[C@@H]1NC(=O)[C@@H]2C[C@H](F)CN2C(=O)CNC(=O)[C@H](Cc2ccc(C(=O)O)cc2)NC(=O)[C@H](CC23CC(C2)C3)NC(=O)[C@H](Cc2ccc(-c3ccc(C(=O)O)cc3)cc2)NC(=O)[C@H]2C[C@@H](Cc3ccc(F)cc3)CN2C(=O)CNC(=O)[C@H](CCN)NC(=O)[C@H](CCC(N)=O)NC(=O)[C@H](Cc2cncnc2)NC(=O)[C@@](C)(CCCCN)NC(=O)[C@H](Cc2c[nH]c3ccccc23)NC(=O)[C@H](CO)NC(=O)C(C)(C)NC1=O [Example 145] (cyclo([Bip(4'-COOH)][Ala(1-bicyclo(1.1.1)pentyl)][Phe(4-COOH)]G[Pro(cis-4-F)][Trp(βS-Me,4-F)][Aib]SW[d(αMeK)][Ala(pyrimidin-5-yl)]Q[Dab]G[dPro(4R-Bzl(4-F))]))
  IC50: 41 pM
